Experiment [1] has as its system NCI-60 cell line panel. Kind of experiment: NCI-60 cell line screen, sulforhodamine B growth inhibition. The format is cell-based, human. Conditions: most cases, 48 h.
Experiment [2] concerns KAT5 MYST domain. As to conditions: MYST domains, cited from earlier work.
In experiment [3] the test system is KAT6A MYST domain. Conditions: MYST domains, cited from earlier work.
Experiment [4] relates to H3K14Ac (KAT7). Put plainly: Histone acetylation biomarker western blot, MCF-7. As to conditions: MCF-7 cells, 24 h. The class given is cell-based. On the technique in general: In western blotting, separated proteins are transferred to a membrane and probed.
Experiment [5] deals with histone acetylation biomarkers for KAT6, KAT7, KAT8, and KAT5. Kind of experiment: Histone acetylation biomarker panel by western blot, MCF-7. The format is cell-based. The text has this: Figure 5. Comparative cellular analysis of orthogonal MYST inhibitor chemotypes. (A) Chemical structures of commonly used MYST KAT inhibitors. Annotated target: KAT enzyme specified as target of each inhibitor in scientific or commercial vendor literature. Biomarker: KAT-regulated histone acetylation biomarker found to be modulated by each compound in this study. (B) Cellular response of histone acetylation biomarkers for KAT6, KAT7, KAT8, and KAT5 to treatment with drug-like MYST acetyltransferases inhibitors. MCF-7 cells were treated with escalating dosages (0.1, 1, 10, 30 μM.) of each compound for 24 h. […] Data is representative of n=2 biological replicates. […]
(§1) Target engagement was assessed using the panel of MYST-dependent histone acetylation biomarkers defined above. […] While WM-3835 has been applied to study KAT7, its initial publication alludes to its ability to inhibit both KAT6A/B and KAT7.[14], [43] […] All commercial vendors currently market WM-3835 as a KAT7 inhibitor.
(§2) General materials and methods
Total protein on western blots was
(§3) manufacturer's protocols.
KAT capture and competitive chemoproteomic profiling
(§4) for 2 hours, then lyophilized.

Experiment [6] concerns KAT7 MYST domain. Conditions: MYST domains, cited from earlier work.
For experiment [7], the target named is KAT5 MYST domain. Conditions: SPR, MYST domains, as previously described (WM-8014); ref https://www.nature.com/articles/s41586-019-1835-6; cited from earlier work.
For experiment [8], the system named is H4K16Ac (KAT8). Kind of experiment: Histone acetylation biomarker western blot, MCF-7. As to conditions: MCF-7 cells, 24 h, up to 30 μM. The class given is cell-based. As for the experimental part:
as §1, §2
Total protein on western blots was […]
as §3
KAT capture and competitive chemoproteomic profiling […]
as §4
12 μL triethylamine. […] The beads were then magnetically separated […]
distinguish between tightly grouped and diffuse clusters, compactness was quantified by calculating the average pairwise Euclidean distance between all points within each cluster. Clusters with lower average

Experiment [9] relates to proteins captured by H3K14-CoA resin from HeLa nuclear extracts. Put plainly: Proteome-wide competitive chemoproteomic profiling (H3K14-CoA beads, TMT LC-MS/MS). The format is binding. Conditions: for Log2FC (100nM) / (000nM): 100 nM WM-3835, H3K14-CoA beads; for Log2FC (100nM) / (000nM) / Log2FC (1000nM) / (000nM) / Log2FC (10000nM) / (000nM): TMT; for Log2FC (1000nM) / (000nM): 1000 nM WM-3835, H3K14-CoA beads; for Log2FC (10000nM) / (000nM): 10000 nM WM-3835, H3K14-CoA beads.

Experiment [10] concerns the target KAT6A MYST domain. Conditions: SPR, MYST domains, cited from earlier work. In general terms: Surface plasmon resonance follows binding to a sensor surface in real time, without labels.
Experiment [11] deals with H3K23Ac (KAT6A/B). Kind of experiment: Histone acetylation biomarker western blot, MCF-7. The class given is cell-based. As to conditions: MCF-7 cells, 24 h.
Experiment [12] concerns the target KAT7 MYST domain. Conditions: SPR, MYST domains, as previously described (WM-8014); ref https://www.nature.com/articles/s41586-019-1835-6; cited from earlier work.
Experiment [13] concerns KAT6B MYST domain. The arrangement: method as in https://www.nature.com/articles/s41586-018-0387-5. Conditions: MYST domains, 0.4 uM AcCoA, H4 peptide; ref https://www.nature.com/articles/s41586-018-0387-5; cited from earlier work.
Experiment [14] relates to KAT8 MYST domain. Also on record: method as in https://www.nature.com/articles/s41586-018-0387-5. Conditions: MYST domains, 0.4 uM AcCoA, H4 peptide; ref https://www.nature.com/articles/s41586-018-0387-5; cited from earlier work.
Where [15] appears, read: protein MBTD1 (Q05BQ5, NuA4/Tip60).
[16] abbreviates: protein MRGBP (Q9NV56, NuA4/Tip60).
The mark [17] stands for this setting: protein TRRAP (Q9Y4A5, NuA4/Tip60).

Where two headings read alike, the source gives them in different places.

For `C[C@H](CN[C@@H](C(=O)Nc1ccc(-c2cnn(C)c2)cn1)c1ccccc1)c1ccc(C#N)cc1` [CPI-1612], the “growth inhibition potency compared with PF-9363” value in [1] was “much more potent”.

In general, IC50 refers to the point on the concentration scale where inhibition reaches its midpoint. On to `O=C(NNS(=O)(=O)c1ccccc1F)c1cc(F)cc(-c2ccccn2)c1` [WM-1119], for which the IC50 in experiment [2] (1 μM acetyl-CoA, ref https://www.nature.com/articles/s41586-019-1835-6, read-out: KAT5 IC50 in μM (paper2)) was 9.8 µM; in experiment [3] (0.4 uM AcCoA, ref https://www.nature.com/articles/s41586-018-0387-5, read-out: KAT6A IC50 in μM (paper 1)) it was 0.0063 µM; in experiment [3] (1 μM acetyl-CoA, ref https://www.nature.com/articles/s41586-019-1835-6, read-out: KAT6A IC50 in μM (paper2)), 0.077 µM; in experiment [6] (1 μM acetyl-CoA, ref https://www.nature.com/articles/s41586-019-1835-6, read-out: KAT7 IC50 in μM (paper2)) it was 0.578 µM. Further, the “inhibition of KAT7 (H3K14Ac) at the highest concentration tested” value in experiment [4] (30 μM) was “little inhibition of KAT7”. In addition, the “effect on biomarkers other than KAT6A/B” value in experiment [5] (MCF-7 cells, high concentrations) is “untouched”.

The Kd is the concentration at which binding is half-saturated. In the case of `Cc1cc(-c2ccccc2)cc(C(=O)NNS(=O)(=O)c2cccc(O)c2)c1F` [WM-3835], the IC50 in experiment [2] (1 μM acetyl-CoA, WM-3835 sheet, ref https://www.nature.com/articles/s41586-019-1835-6, read-out: KAT5 IC50) is 0.312 µM; in [3] (1 μM acetyl-CoA, WM-3835 sheet, ref https://www.nature.com/articles/s41586-019-1835-6, read-out: KAT6A IC50), 0.017 µM; in [6] (1 μM acetyl-CoA, WM-3835 sheet, ref https://www.nature.com/articles/s41586-019-1835-6, read-out: KAT7 IC50), 0.03 µM. Further, the Kd in experiment [7] is 500 nM; in experiment [10] (as previously described (WM-8014), ref https://www.nature.com/articles/s41586-019-1835-6), 7 nM; in experiment [12], 34 nM. For the same molecule, the “inhibition of KAT8 (H4K16Ac)” value in experiment [8] is recorded as “not KAT8”. Moreover, the “competition of JADE2 versus BRPF3 capture” value in experiment [9] (0, 0.1, 1, 10 μM) was “differential competition of JADE2 and BRPF3 capture”. Besides, the “Log2FC (100nM) / (000nM)” value in experiment [9] (protein KAT14 (Q9H8E8, STAGA)) is recorded as 0.25; in [9] (setting [15]), 0.4; in experiment [9] (setting [16]), 0.37; in [9] (setting [17]), -0.03. For the same molecule, the “Log2FC (1000nM) / (000nM)” value was -0.01 in experiment [9] (protein KAT14 (Q9H8E8, STAGA)); 0.54 in [9] (setting [15]); 0.49 in experiment [9] (setting [16]); 0.04 in [9] (setting [17]). Besides, the “Log2FC (10000nM) / (000nM)” value is reported as -0.28 in experiment [9] (protein KAT14 (Q9H8E8, STAGA)); 0.24 in experiment [9] (setting [15]); 0.27 in experiment [9] (setting [16]); -0.06 in experiment [9] (setting [17]). Besides, the “inhibition of KAT6A/B-catalyzed H3K23Ac” value in experiment [11] was “potently inhibits”. Moreover, the “more potent inhibition of KAT6A/B (H3K23Ac) than KAT7 (H3K14Ac)” value in experiment [5] (MCF-7 model, 24 h) is ~ 100 fold.

For the molecule `Cc1cc(-c2ccccc2)cc(C(=O)NNS(=O)(=O)c2ccccc2)c1F` [WM-8014], the IC50 in experiment [2] (5 uM AcCoA, H4 peptide, ref https://www.nature.com/articles/s41586-018-0387-5, read-out: KAT5 IC50) is 0.224 µM; in experiment [3] (0.4 uM AcCoA, H4 peptide, ref https://www.nature.com/articles/s41586-018-0387-5, read-out: KAT6A IC50), 0.0082 µM; in [6] (1 uM AcCoA, H4 FL, ref https://www.nature.com/articles/s41586-018-0387-5, read-out: KAT7 IC50), 0.342 µM; in experiment [13] it was 28 nM; in [14] it was 11000 nM. Also, the “inhibition of KAT8 (H4K16Ac)” value in experiment [8] is given as “not KAT8”. Further, in experiment [4], the “doses at which KAT7 (H3K14Ac) is inhibited” value was 10 to 30 µM. Further, in [10] (ref https://www.nature.com/articles/s41586-018-0387-5), the dissociation constant Kd is 5.1 nM.

Source of the values: article doi:10.1101/2025.04.25.650653, “Hierarchical small molecule inhibition of MYST acetyltransferases” (bioRxiv, 2025).
